Reference: US10189782B2, “Derivatives of indole for the treatment of cancer, viral infections and lung diseases” (BIOKINESIS, priority 2012, dated 2019)
Where a name gives a salt, the structure may show the parent alone. Read-outs that look alike come from different tables or passages of the source.

Columns and labels:
[1] = biological target: T1, Human recombinant MKlp2 motor domain1-519, His tagged (Homo sapiens, UniProt O95235); experiment: Microtubule stimulated ATPase activity of the MKlp2 motor domain (Kinesin ELIPA Assay Kit); type: biochemical; conditions: read-out: MKIp2 IC50
T1 construct: Human recombinant MKlp2 motor domain1-519, His tagged; His; purchased Cytoskeleton MP05
T1 sequence (O95235 1-519): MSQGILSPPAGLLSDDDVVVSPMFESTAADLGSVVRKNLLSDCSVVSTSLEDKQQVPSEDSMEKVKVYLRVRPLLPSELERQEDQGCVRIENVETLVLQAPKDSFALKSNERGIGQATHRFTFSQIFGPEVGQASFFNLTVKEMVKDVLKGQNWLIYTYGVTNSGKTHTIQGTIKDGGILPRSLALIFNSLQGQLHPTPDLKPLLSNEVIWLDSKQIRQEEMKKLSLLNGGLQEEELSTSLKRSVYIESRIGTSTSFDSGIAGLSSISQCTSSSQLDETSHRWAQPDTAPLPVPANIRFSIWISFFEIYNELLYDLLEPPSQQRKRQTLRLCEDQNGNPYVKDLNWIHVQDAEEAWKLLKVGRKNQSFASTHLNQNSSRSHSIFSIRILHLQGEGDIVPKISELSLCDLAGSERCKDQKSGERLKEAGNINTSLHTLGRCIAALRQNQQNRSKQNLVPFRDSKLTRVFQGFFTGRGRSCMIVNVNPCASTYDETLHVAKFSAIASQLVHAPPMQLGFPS
Method: Evaluation of Inhibitory Effects on the Microtubule Stimulated ATPase Activity of the MKlp2 Motor Domain.
MKlp2 ATPase activity was measured by monitoring real time free phosphate generation using the Kinesin ELIPA Assay Kit. The assay is based upon an absorbance shift (330 nm-360 nm) that occurs when 2-amino-6-mercapto-7-methylpurine ribonucleoside (MESG) is catalytically converted to 2-amino-6-mercapto-7-methylpurine in the presence of inorganic phosphate (Pi). One molecule of Pi will yield one molecule of 2-amino-6-mercapto-7-methylpurine in an essentially irreversible reaction.
All experiments were performed at 22° C.
Condition 1, compound preparation.
The compounds were dissolved in DMSO at 30× the maximum concentration to be tested. […] DMSO solutions were pipetted directly into each well.
Condition 2, reaction's “motor mix”.
The following were mixed sequentially in the specified order at RT to obtain the “motor mix”.
20 mL: 15 mM Pipes-NaOH pH 7.0, 10 mM MgCl2, 30 μM Tx (Buffer 1).
10 mL: 5× MSEG (ELIPA 1 reagent, Cat. # BK051).
10 mL: 2.5 mg/mL porcine brain microtubules (3×10 mg Cat. # MT002-XL resuspended in 12 mL of Buffer 1).
0.5 mL: 100×PNP (ELIPA 2 reagent, cat. # BK051).
Condition 3, reaction initiation.
The motor mix was pipetted into each well to obtain 80% of total volume. The reaction was initiated by adding a 20% of total volume of 5 mM ATP into each well.
The reactions were measured in a SpectraMax M2 (Molecular Devices) set in kinetic mode and 360 nm absorbance wavelength. The start protocol was 5 second rapid circular mixing, 21 readings, 30 seconds apart.

K562 cells = experiment: Cytotoxicity on human cancer cells (WST-1), K562; type: cell-based; conditions: WST-1 on D4, read-out: K562 IC50
Method: Evaluation of Cytotoxicity Effects on Human Cancer Cells
The effects of the compounds of the invention on the viability of human cancer cells were studied on various human cancer cell lines of differing tissue origins (A549, NCI-H460: lung cancer; MDA-MB-231: breast cancer; HCT-116, HT-29: colon cancer; MIA-PaCa-2: pancreatic cancer; K562: leukaemia). All cell lines were obtained from ATCC or ECACC. Cells were cultured in the culture media described below, under a 37° C., 5% CO2 humidified atmosphere, according to a standard operating procedure.
On D0, the cells were plated in 90 μl in 96 wells plates at densities ranging from 500 to 5,000 cells per well.
Following addition of the test substance the cells were protected from light. The solvents (DMSO and specific control solvent were added at the maximal concentration: 10 μl/well (3 wells/condition)).
On D4, the Cell Proliferation Reagent WST-1 was added to each well (10 μl/well), according to a standard operating procedure. The cells were then incubated for 30 min to 4 h at 37° C.-5% CO2. After these incubations, the 96-well plates were shaken thoroughly for 1 min with Multiskan® EX apparatus (Thermo Labsystems, France). The absorbence was measured at 450 nm, the reference wavelength being 620 nm. The analysis of the results was performed with the Ascent software 2.6 (Thermo Labsystems, France), Microsoft Excel 2003 and GraphPad Prism 4.03 softwares to give the concentration of the compounds that induces the death of 50% of the cells (IC50).

[2] = test system: human colon carcinoma HCT-116 xenografts; experiment: Anti-tumor activity in nude mice bearing subcutaneous human colon carcinoma HCT-116 xenografts; type: in vivo; conditions: i.p.
Method: The effects of one compound of the invention were studied on the tumor growth of human cancer cells in nude mice. […] The induction in nude mice was realized by subcutaneous injection in the right flank of each mouse of 10×10^6 HCT-116 cells in 200 μl serum-free medium. When the tumor volume reached 130 mm^3, mice were randomized in to 3 groups (10 mice/group).
Mice of group 2 were treated by intraperitoneal injection of cisplatin (diluted in NaCl 0.9%) at 4 mg/kg according to the treatment schedule 1Q3Dx3.
The body weight and tumor volume of mice were recorded twice a week until the end of the experiment.

[3] = HCT-116 xenograft nude mice, Cisplatin 4 mg/kg, Cpd 38 37.5 mg/kg, starting MBW 21 g
[4] = Table 6 (prodrugs, formula II), K562 cells

| IC50 ([1]; Table 3, 22° C.) [µM] | IC50 ([1]; Table 6 (prodrugs, formula II)) [µM] | Compound | IC50 (K562 cells; Table 4, K562 leukaemia cells) [µM] | IC50 (K562 cells; [4]) [µM] | other results |
| --- | --- | --- | --- | --- | --- |
| 0.2 | – | CSc1ccncc1/C=C(\C#N)c1c[nH]c2ccc(Br)cc12 [Example 15, (Z)-2-(5-bromo-1H-indol-3-yl)-3-(4-(methylthio)pyridin-3-yl)acrylonitrile] | 2.9 | – | – |
| 0.61 | – | COc1ccncc1/C=C(/C#N)c1c[nH]c2ccc(Br)cc12 [Example 5b, (E)-2-(5-bromo-1H-indol-3-yl)-3-(4-methoxypyridin-3-yl)acrylonitrile] | 3.92 | – | – |
| 0.7 | – | N#C/C(=C\c1cnccc1Cl)c1c[nH]c2ccc(Br)cc12 [Example 4, (Z)-2-(5-bromo-1H-indol-3-yl)-3-(4-chloropyridin-3-yl)acrylonitrile] | 1.4 | – | – |
| 0.8 | – | N#C/C(=C\c1cnccc1Cl)c1c[nH]c2ccc(Cl)cc12 [Example 3, (Z)-2-(5-chloro-1H-indol-3-yl)-3-(4-chloropyridin-3-yl)acrylonitrile] | 3.6 | – | – |
| 0.03 | – | N#C/C(=C\c1cnccc1-c1ccoc1)c1c[nH]c2ccc(Cl)cc12 [Example 29, (Z)-2-(5-chloro-1H-indol-3-yl)-3-(4-(furan-3-yl)pyridin-3-yl)acrylonitrile] | 4.7 | – | – |
| 0.1 | – | COc1ccncc1/C=C(\C#N)c1c[nH]c2ccc(Cl)cc12 [Example 9, (Z)-2-(5-chloro-1H-indol-3-yl)-3-(4-methoxypyridin-3-yl)acrylonitrile] | 1.4 | – | – |
| 0.3 | – | COc1ccc2[nH]cc(/C(C#N)=C/c3cnccc3OC)c2c1 [Example 12, (Z)-2-(5-methoxy-1H-indol-3-yl)-3-(4-methoxypyridin-3-yl)acrylonitrile] | 0.9 | – | – |

The remaining lines, values behind:

| Compound | IC50 ([1]; Table 3, 22° C.) [µM] | IC50 ([1]; Table 6 (prodrugs, formula II)) [µM] | IC50 (K562 cells; Table 4, K562 leukaemia cells) [µM] | IC50 (K562 cells; [4]) [µM] | other results |
| --- | --- | --- | --- | --- | --- |
| N#C/C(=C/c1cnccc1-c1ccoc1)c1c[nH]c2ccc(Br)cc12 [Example 34b, (E)-2-(5-bromo-1H-indol-3-yl)-3-(4-(furan-3-yl)pyridin-3-yl)acrylonitrile] | 0.96 | – | 14.3 | – | – |
| CN(C)c1ccncc1/C=C(\C#N)c1c[nH]c2ccc(Br)cc12 [Example 8, (Z)-2-(5-bromo-1H-indol-3-yl)-3-(4-(dimethylamino)pyridin-3-yl)acrylonitrile] | 0.9 | – | 7.5 | – | – |
| N.N.[Cl][Pt][Cl] [Cisplatin, cisplatin, reference compound] | – | – | – | – | Antitumor activity (tumor volume, FIG. 3) ([2]; HCT-116 xenograft bearing nude mice, cisplatin 4 mg/kg, compound 38 37.5 mg/kg): Antitumor activity was observed; MBWC D 0-D 4 (mean body weight change) [2, 3]: -1.1 g; MBWC D 0-D 7 (mean body weight change) [2, 3]: -2.54 g; MBWC D 0-D 10 (mean body weight change) [2, 3]: -3.33 g; MBWC D 0-D 14 (mean body weight change) [2, 3]: -2.22 g; MBWC D 0-D 17 (mean body weight change) [2, 3]: -1.26 g; MBWC D 0-D 21 (mean body weight change) [2, 3]: -0.38 g; MBWC D 0-D 24 (mean body weight change) [2, 3]: -0.02 g; MBWC D 0-D 28 (mean body weight change) [2, 3]: -0.1 g |
| COc1ccc(C#N)cc1/C=C(\C#N)c1cn(C(=O)CCC(NC(=O)OC(C)(C)C)C(=O)OC(C)(C)C)c2ccc(Br)cc12 (stereo in doubt) [Example 66, (R,Z)-tert-butyl-5-(5-bromo-3-(1-cyano-2-(5-cyano-2-methoxyphenyl)vinyl)-1H-indol-1-yl)-2-(tert-butoxycarbonylamino)-5-oxopentanoate] | – | 5.4 | – | 0.03 | – |
| COc1ccc(C#N)cc1/C=C(\C#N)c1cn(C(=O)CC(N)C(=O)OCc2ccccc2)c2ccc(Br)cc12 (stereo in doubt) [Example 67, (R,Z)-benzyl-2-amino-4-(5-bromo-3-(1-cyano-2-(5-cyano-2-methoxyphenyl)vinyl)-1H-indol-1-yl)-4-oxobutanoate] | – | 3.1 | – | 0.04 | – |
| COc1ccc2c(/C(C#N)=C/c3cc(C#N)ccc3OC)c[nH]c2c1 [Example 54, (Z)-3-(2-cyano-2-(6-methoxy-1H-indol-3-yl)vinyl)-4-methoxybenzonitrile] | 1.4 | – | 0.02 | – | – |
| COc1ccc(C#N)cc1/C=C(\C#N)c1cn(C(=O)OC(C)(C)C)c2ccc(Br)cc12 [Example 64, (Z)-tert-butyl 5-bromo-3-(1-cyano-2-(5-cyano-2-methoxyphenyl)vinyl)-1H-indole-1-carboxylate] | – | 19.6 | – | 0.24 | – |
| COc1ccc(C#N)cc1/C=C(\C#N)c1cn(C(=O)C2CCC(=O)N2)c2ccc(Br)cc12 (stereo not drawn) [Example 75, (Z)-3-(2-(5-bromo-1-(5-oxopyrrolidine-2-carbonyl)-1H-indol-3-yl)-2-cyanovinyl)-4-methoxybenzonitrile] | – | 4.6 | – | 0.02 | – |
| COc1ccc(C#N)cc1/C=C(\C#N)c1cn(C(=O)CN)c2ccc(Br)cc12 [Example 71, (Z)-3-(2-(1-(2-aminoacetyl)-5-bromo-1H-indol-3-yl)-2-cyanovinyl)-4-methoxybenzonitrile hydrochloride] | – | 1.9 | – | 0.01 | – |
| COc1ccncc1/C=C(\C#N)c1cn(C(C)=O)c2ccc(Br)cc12 [Example 55, (Z)-2-(1-acetyl-5-bromo-1H-indol-3-yl)-3-(4-methoxypyridin-3-yl)acrylonitrile] | – | 13.7 | – | 0.55 | – |
| COc1ccc(C#N)cc1/C=C(\C#N)c1cn(C(=O)CC(NC(=O)OC(C)(C)C)C(=O)OCc2ccccc2)c2ccc(Br)cc12 (stereo in doubt) [Example 65, (R,Z)-benzyl-4-(5-bromo-3-(1-cyano-2-(5-cyano-2-methoxyphenyl)vinyl)-1H-indol-1-yl)-2-(tert-butoxycarbonylamino)-4-oxobutanoate] | – | 10.1 | – | 0.04 | – |
| COc1ccc(C#N)cc1/C=C(\C#N)c1cn(C(=O)CN2CCNCC2)c2ccc(Br)cc12 [Example 72, (Z)-3-(2-(5-bromo-1-(2-(piperazin-1-yl)acetyl)-1H-indol-3-yl)-2-cyanovinyl)-4-methoxybenzonitrile Hydrochloride] | – | > 50 | – | 0.01 | – |
